According to patent US7820708B2, “Carboxamides” (Bayer CropScience AG, priority 2005, dated 2010):

Legend:
[1] = log P determination by HPLC on reversed-phase column (C 18), EEC Directive 79/831 Annex V.A8; assay type: physicochemical; conditions: reversed-phase HPLC column (C 18); pH 2.3; 0.1% aqueous phosphoric acid and acetonitrile; 43° C.
Method: The log P values given in the Tables and Preparation Examples above are determined in accordance with EEC Directive 79/831 Annex V.A8 by HPLC (High Performance Liquid Chromatography) on a reversed-phase column (C 18). Temperature: 43° C. The determination is carried out in the acidic range at pH 2.3 using the mobile phases 0.1% aqueous phosphoric acid and acetonitrile; linear gradient from 10% acetonitrile to 90% acetonitrile. Calibration is carried out using unbranched alkan-2-ones (having 3 to 16 carbon atoms) with known log P values (determination of the log P values by the retention times using linear interpolation between two successive alkanones).

[2] = tested on: Alternaria solani; test: Alternaria test (tomato)/protective; assay type: in vivo; conditions: protective, application rate 1000 ppm, evaluation 7 days after inoculation
Method: (§1) To produce a suitable preparation of active compound, 1 part by weight of active compound is mixed with the stated amounts of solvent and emulsifier and the concentrate is diluted with water to the desired concentration.
To test for protective activity, young tomato plants are sprayed with the active compound preparation at the stated application rate. 1 day after the treatment, the plants are inoculated with a spore suspension of Alternaria solani and then remain at 100% relative atmospheric humidity and 20° C. for 24 h. The plants then remain at 96% relative atmospheric humidity and a temperature of 20° C.
Evaluation is carried out 7 days after the inoculation. 0% means an efficacy which corresponds to that of the control, whereas an efficacy of 100% means that no infection is observed.

[3] = tested on: Pyrenophora teres; test: Pyrenophora teres test (barley)/protective; assay type: in vivo; conditions: protective, application rate 500 ppm, evaluation 8 days after inoculation
Method: as §1
To test for protective activity, young plants are sprayed with the active compound preparation at the stated application rate. After the spray coating has dried on, the plants are sprayed with a conidia suspension of Pyrenophora teres. The plants remain in an incubation cabin at 20° C. and 100% relative atmospheric humidity for 48 hours.
The plants are then placed in a greenhouse at a temperature of about 20° C. and a relative atmospheric humidity of about 80%.
Evaluation is carried out 8 days after the inoculation. 0% means an efficacy which corresponds to that of the control, whereas an efficacy of 100% means that no infection is observed.

[4] = tested on: Uromyces appendiculatus; test: Uromyces test (bean)/protective; assay type: in vivo; conditions: protective, application rate 100 ppm, evaluation 10 days after inoculation
Method: To produce a suitable preparation of active compound, 1 part by weight of active compound is mixed within the stated amounts of solvents and emulsifier and the concentrate is diluted with water to the desired concentration.
To test for protective activity, the young plants are sprayed with the active compound preparation at the stated application rate. After the spray coating has dried on, the plants are inoculated with an aqueous spore suspension of the bean rust pathogen Uromyces appendiculatus and then remain in an incubation cabin at about 20° C. and 100% relative atmospheric humidity for 1 day. The plants are then placed in a greenhouse at about 21° C. and a relative atmospheric humidity of about 90%.
Evaluation is carried out 10 days after the inoculation. 0% means an efficiency which corresponds to that of the control, whereas an efficacy of 100% means that no infection is observed.

chromatographic logP [1] | SMILES | Efficacy in % [2] [%] | Efficacy in % [3] [%] | Efficacy in % [4] [%]
3.38 | Cn1cc(C(=O)N(c2ccccc2-c2ccc(Cl)cc2)C2CC2)c(C(F)F)n1 [Compound 7] | 89 | 95 | –
3.22 | Cc1nn(C)c(F)c1C(=O)N(c1ccccc1-c1ccc(Cl)cc1)C1CC1 [Compound 6] | – | 80 | 93
5.33 | CC(C)CC(C)c1ccccc1NC1CC1 (stereo not drawn) [III-1, N-cyclopropyl-2-(1,3-dimethylbutyl)aniline] | – | – | –
3.74 | Cc1nn(C)c(F)c1C(=O)N(c1ccccc1C(C)CC(C)C)C1CC1 (stereo not drawn) [Compound 2] | 100 | – | 100
3.74 | Cc1nn(C)c(F)c1C(=O)N(c1ccc(F)cc1-c1ccc(Cl)c(Cl)c1)C1CC1 [Compound 10] | 89 | 95 | –
3.89 | CC(C)CC(C)c1ccccc1N(C(=O)c1cn(C)nc1C(F)F)C1CC1 (stereo not drawn) [Compound 3, N-cyclopropyl-3-(difluoromethyl)-N-[2-(1,3-dimethylbutyl)phenyl]-1-methyl-1H-pyrazol-4-carboxamide] | 94 | – | 100
3.85 | Cn1cc(C(=O)N(c2ccc(F)cc2-c2ccc(Cl)c(Cl)c2)C2CC2)c(C(F)F)n1 [Compound 11] | 94 | – | –
